Results as given in the supplement of paper PMC12076712.

What was measured:
[1] = target: MAPK12 (UniProt P53778); assay: pIC50, competition of probe 3 labelling in live cells; conditions: cell material: Jurkat cells
[2] = target: T1, ITK (UniProt Q08881); assay: as above; conditions: cell material: Jurkat cells
T1 sequence (whole entry): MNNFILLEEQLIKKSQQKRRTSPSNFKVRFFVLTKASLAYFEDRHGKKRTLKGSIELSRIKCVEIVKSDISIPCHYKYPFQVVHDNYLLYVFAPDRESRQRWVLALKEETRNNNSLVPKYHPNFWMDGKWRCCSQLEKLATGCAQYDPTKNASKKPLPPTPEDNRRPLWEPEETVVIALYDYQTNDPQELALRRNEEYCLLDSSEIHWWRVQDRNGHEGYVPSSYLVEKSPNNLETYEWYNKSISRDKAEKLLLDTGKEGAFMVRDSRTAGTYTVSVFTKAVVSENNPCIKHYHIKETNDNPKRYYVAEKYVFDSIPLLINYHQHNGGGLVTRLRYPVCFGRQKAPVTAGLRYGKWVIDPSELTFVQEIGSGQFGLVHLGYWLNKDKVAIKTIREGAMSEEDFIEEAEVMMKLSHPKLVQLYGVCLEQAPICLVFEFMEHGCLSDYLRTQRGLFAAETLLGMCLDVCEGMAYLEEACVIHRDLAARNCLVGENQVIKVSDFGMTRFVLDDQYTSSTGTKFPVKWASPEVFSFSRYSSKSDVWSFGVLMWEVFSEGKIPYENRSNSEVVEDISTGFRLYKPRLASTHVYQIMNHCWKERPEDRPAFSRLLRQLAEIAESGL

[3] = target: STK33 (UniProt Q9BYT3); assay: as above; conditions: cell material: Jurkat cells
[4] = target: PAK2 (UniProt Q13177); assay: as above; conditions: cell material: Jurkat cells
[5] = target: GSTM1 (UniProt P09488); assay: as above; conditions: cell material: Jurkat cells
[6] = target: T2, UniProt Q13043; assay: pIC50, kinobeads binding competition; conditions: cell material: Jurkat lysate
T2 sequence (whole entry): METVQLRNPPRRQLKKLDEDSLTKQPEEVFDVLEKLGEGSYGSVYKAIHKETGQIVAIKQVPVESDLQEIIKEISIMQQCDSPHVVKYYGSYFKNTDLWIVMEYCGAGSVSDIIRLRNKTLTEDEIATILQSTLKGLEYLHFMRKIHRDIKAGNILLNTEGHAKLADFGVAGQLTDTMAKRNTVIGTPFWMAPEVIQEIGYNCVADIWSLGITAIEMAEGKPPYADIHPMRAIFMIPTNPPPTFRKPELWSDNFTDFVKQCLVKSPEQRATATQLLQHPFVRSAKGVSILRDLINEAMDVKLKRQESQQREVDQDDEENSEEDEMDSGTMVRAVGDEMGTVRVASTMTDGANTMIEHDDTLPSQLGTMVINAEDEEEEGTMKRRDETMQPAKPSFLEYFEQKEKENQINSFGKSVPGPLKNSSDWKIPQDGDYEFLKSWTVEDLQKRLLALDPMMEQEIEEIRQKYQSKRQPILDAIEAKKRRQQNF

[7] = target: T3, UniProt P35626; assay: pIC50, kinobeads binding competition; conditions: cell material: Jurkat lysate
T3 sequence (whole entry): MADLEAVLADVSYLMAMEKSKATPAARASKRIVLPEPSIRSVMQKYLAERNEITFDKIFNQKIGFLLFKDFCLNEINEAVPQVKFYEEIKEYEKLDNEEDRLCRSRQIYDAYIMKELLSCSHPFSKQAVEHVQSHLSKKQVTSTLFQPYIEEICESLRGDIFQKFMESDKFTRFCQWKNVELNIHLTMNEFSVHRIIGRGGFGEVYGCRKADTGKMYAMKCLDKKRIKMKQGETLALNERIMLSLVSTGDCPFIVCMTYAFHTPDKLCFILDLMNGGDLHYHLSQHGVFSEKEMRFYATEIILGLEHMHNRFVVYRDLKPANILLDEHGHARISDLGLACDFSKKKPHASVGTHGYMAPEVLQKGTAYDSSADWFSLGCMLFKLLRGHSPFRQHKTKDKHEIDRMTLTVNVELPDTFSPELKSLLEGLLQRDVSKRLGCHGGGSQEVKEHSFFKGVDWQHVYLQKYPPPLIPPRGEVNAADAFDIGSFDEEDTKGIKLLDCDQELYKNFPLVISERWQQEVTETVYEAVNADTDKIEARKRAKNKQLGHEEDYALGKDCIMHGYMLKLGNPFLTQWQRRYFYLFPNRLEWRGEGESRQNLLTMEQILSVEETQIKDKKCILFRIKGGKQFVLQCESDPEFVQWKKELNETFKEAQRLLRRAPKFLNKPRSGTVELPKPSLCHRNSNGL

[8] = target: T4, UniProt O43318; assay: pIC50, kinobeads binding competition; conditions: cell material: Jurkat lysate
T4 sequence (whole entry): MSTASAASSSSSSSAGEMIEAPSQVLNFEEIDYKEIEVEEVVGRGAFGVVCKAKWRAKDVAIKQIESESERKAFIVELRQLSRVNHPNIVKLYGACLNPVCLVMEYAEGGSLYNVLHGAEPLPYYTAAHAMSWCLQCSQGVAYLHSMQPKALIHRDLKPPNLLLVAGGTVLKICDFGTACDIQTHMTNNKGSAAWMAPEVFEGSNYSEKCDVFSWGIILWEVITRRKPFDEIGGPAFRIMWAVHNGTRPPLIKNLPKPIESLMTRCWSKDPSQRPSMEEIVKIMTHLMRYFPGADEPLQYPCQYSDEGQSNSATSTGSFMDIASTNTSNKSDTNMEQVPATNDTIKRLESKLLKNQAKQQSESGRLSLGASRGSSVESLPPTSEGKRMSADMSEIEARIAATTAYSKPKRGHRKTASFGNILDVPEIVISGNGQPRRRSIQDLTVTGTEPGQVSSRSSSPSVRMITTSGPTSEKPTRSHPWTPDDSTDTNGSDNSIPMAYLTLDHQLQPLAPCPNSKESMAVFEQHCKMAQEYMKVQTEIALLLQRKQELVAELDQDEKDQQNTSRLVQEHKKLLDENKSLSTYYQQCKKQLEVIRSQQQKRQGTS

[9] = target: UniProt Q9BVS4; assay: pIC50, kinobeads binding competition; conditions: cell material: Jurkat lysate
[10] = target: RAF1 (UniProt P04049); assay: pIC50, kinobeads binding competition; conditions: cell material: Jurkat lysate
RAF1, sequence (P04049 whole entry): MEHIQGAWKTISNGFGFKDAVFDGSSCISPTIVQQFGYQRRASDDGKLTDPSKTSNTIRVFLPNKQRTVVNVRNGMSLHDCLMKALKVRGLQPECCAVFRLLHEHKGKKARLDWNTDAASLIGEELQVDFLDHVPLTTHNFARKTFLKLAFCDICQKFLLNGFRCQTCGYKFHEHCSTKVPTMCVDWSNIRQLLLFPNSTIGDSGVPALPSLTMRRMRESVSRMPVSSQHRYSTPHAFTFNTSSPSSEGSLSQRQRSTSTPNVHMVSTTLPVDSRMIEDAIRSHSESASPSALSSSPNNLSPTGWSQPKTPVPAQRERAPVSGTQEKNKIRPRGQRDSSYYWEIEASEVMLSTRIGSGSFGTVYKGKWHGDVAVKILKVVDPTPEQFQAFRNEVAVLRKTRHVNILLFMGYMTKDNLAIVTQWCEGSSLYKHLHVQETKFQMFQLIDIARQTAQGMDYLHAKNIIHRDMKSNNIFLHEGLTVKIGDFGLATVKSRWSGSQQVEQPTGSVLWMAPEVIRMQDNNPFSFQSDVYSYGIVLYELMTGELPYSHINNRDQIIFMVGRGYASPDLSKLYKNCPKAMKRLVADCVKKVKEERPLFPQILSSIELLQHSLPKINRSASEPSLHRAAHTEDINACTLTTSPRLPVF

GSTM1, sequence (P09488 whole entry): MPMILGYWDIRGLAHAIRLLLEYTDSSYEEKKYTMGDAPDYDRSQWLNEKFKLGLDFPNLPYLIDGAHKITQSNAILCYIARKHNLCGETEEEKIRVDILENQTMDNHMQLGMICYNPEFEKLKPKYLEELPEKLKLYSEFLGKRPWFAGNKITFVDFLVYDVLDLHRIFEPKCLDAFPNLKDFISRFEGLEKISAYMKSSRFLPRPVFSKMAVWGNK
PAK2, sequence (Q13177 whole entry): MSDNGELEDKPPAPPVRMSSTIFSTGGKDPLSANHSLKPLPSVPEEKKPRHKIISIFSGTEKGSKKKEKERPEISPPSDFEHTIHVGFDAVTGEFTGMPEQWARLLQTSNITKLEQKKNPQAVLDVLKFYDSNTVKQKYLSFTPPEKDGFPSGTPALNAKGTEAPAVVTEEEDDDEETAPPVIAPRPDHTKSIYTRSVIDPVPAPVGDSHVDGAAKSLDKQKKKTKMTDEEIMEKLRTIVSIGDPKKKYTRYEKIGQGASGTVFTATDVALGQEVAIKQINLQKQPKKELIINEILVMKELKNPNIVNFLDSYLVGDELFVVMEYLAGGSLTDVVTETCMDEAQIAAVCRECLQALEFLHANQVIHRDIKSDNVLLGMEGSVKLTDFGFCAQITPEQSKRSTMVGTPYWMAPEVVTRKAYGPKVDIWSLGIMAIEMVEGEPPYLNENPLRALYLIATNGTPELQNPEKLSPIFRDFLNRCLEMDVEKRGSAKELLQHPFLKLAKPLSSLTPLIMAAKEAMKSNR
STK33, sequence (Q9BYT3 whole entry, looked up): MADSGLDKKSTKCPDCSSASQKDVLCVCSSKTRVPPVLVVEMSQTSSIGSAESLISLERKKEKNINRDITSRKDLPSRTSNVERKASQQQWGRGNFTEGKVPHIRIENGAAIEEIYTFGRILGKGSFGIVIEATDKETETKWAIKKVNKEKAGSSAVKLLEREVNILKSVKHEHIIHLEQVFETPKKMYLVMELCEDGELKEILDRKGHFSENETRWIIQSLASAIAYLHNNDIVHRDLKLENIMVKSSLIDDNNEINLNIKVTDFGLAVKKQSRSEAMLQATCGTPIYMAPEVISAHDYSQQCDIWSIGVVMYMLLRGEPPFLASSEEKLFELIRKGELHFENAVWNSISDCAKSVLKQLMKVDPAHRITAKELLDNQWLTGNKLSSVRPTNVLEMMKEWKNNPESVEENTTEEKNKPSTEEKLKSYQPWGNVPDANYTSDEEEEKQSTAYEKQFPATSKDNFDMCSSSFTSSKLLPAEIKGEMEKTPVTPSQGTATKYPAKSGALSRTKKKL
MAPK12, sequence (P53778 whole entry): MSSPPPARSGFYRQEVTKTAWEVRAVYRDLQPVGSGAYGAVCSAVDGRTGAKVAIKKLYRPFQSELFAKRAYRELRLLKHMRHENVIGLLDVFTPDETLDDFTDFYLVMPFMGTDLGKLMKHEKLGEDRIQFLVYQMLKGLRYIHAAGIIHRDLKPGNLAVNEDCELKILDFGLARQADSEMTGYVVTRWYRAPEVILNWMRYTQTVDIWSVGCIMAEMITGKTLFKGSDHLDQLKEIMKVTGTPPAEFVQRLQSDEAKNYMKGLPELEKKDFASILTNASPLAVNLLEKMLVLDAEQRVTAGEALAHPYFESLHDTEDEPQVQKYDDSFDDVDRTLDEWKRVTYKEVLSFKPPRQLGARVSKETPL
UniProt Q9BVS4, sequence (Q9BVS4 whole entry, looked up): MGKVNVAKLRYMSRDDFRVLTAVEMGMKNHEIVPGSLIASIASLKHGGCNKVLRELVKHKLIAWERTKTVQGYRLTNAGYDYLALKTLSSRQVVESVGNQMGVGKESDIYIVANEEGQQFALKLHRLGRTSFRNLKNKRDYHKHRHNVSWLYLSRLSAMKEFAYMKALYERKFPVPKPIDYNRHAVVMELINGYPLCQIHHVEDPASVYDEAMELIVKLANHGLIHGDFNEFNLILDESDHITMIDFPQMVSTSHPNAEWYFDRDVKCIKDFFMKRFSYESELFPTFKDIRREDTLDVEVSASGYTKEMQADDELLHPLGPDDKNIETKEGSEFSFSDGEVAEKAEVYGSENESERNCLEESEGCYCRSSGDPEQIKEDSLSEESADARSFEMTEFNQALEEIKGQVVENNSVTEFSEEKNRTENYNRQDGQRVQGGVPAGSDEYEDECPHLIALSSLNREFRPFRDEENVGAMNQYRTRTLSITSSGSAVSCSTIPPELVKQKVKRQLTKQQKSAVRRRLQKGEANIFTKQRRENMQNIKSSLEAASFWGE

Row | pIC50 [1] | pIC50 [2] | pIC50 [3] | pIC50 [4] | pIC50 [5] | pIC50 [6] | pIC50 [7] | pIC50 [8] | pIC50 [9] | pIC50 [10] | SMILES
1 | 4.64 | < 4.52 | < 4.52 | < 4.52 | < 4.52 |  |  |  |  |  | CC#CC(=O)Nc1ccc2ncnc(Nc3cccc(Br)c3)c2c1 [EKI-785]
2 | < 4.52 | < 4.52 | < 4.52 | < 4.52 | < 4.52 | < 4.52 | < 4.52 | < 4.52 | < 4.52 | < 4.52 | CCc1cnn2c(NCc3ccc[n+]([O-])c3)cc(N3CCCC[C@H]3CCO)nc12 [dinaciclib]
